According to patent US12558428B2, “Heterobifunctional compounds and their use in treating disease” (Halda Therapeutics OpCo, Inc., priority 2024, dated 2026):
pKd: −log10 of the molar value.

test system: T-Rex 293 cells having increased expression of estrogen receptor alpha protein; assay: Cellular growth inhibition assay, T-Rex 293 cells, (+) doxycycline; type: cell-based; conditions: T-REx-293, 72 h, Table 7-B; T-Rex 293 cells with doxycycline (increased ERα expression); 72 hours; CellTiter-Glo; read-out: (+) Dox GI50
Procedure, shortened: (§1)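 Viability read-out was CellTiter-Glo 2.0 luminescence after 72 h compound exposure, normalized to zero luminescence and fitted by four-parameter regression to give GI50. Cells were an ERα-inducible T-Rex 293 clone cultured with or without 3 ng/mL doxycycline in charcoal-stripped, phenol red-free medium.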

Q: How did the GI50 turn out when `COc1cc(N2CCC(O)(CN3CCN(c4cc(F)c([C@@H]5c6ccc(O)cc6CC[C@@H]5c5ccc(F)cc5)c(F)c4)CC3)CC2)ccc1C1=N[C@@H](C)c2nnc(C)n2-c2sc(C)c(C)c21` [III-358] was run?
A: < 0.05 µM

Q: Which GI50 does the source give for `COc1cc(N2CCC(O)(CN3CCC(c4cc(F)c([C@H]5c6ccc(O)cc6CC[C@H]5c5ccc(F)cc5)c(F)c4)CC3)CC2)ccc1C1=N[C@@H](C)c2nnc(C)n2-c2sc(C)c(C)c21` [III-359] here?
A: 0.05 to 0.5 µM

Q: `COc1cc(N2CCN(CC3(O)CCN(c4ccc(C5=N[C@@H](C)c6nnc(C)n6-c6sc(C)c(C)c65)cc4)CC3)CC2)ccc1C1=C(c2ccccc2)CCCc2cc(C(=O)O)ccc21` [IV-66] was tested. Which GI50 did it give?
A: < 0.05 µM

Q: For `Cc1sc2c(c1C)C(c1ccc(N3CCC(O)(CN4CCN(c5cc(F)c(C6=C(c7ccccc7)CCCc7cc(C(=O)O)ccc76)cc5F)CC4)CC3)cc1)=N[C@@H](C)c1nnc(C)n1-2` [IV-67], which GI50 is on record?
A: < 0.05 µM

Q: How did the GI50 turn out when `COc1cc(N2CCN(CC3(O)CCN(c4ccc(C5=N[C@@H](C)c6nnc(C)n6-c6sc(C)c(C)c65)cc4)CC3)CC2)c(F)cc1C1=C(c2ccccc2F)CCCc2cc(C(=O)O)ccc21` [IV-68] was run?
A: < 0.05 µM

Q: Which GI50 does the source give for `Cc1sc2c(c1C)C(c1ccc(N3CCC(O)(CN4CCN(c5cc(F)c(C6=C(c7ccccc7)CCCc7cc(C(=O)O)ccc76)c(F)c5)CC4)CC3)cc1)=N[C@@H](C)c1nnc(C)n1-2` [IV-69] here?
A: < 0.05 µM

Q: How did the GI50 turn out when `Cc1sc2c(c1C)C(c1ccc(N3CC(CN4CCN(CC5CN(c6cc(F)c(C7=C(c8ccccc8)CCCc8cc(C(=O)O)ccc87)cc6F)C5)CC4)C3)cc1)=N[C@@H](C)c1nnc(C)n1-2` [IV-70] was run?
A: < 0.05 µM

Q: For `COc1cc(C2CCN(CC3CCC4(CC3)CN(c3ccc(C5=N[C@@H](C)c6nnc(C)n6-c6sc(C)c(C)c65)cc3)C4)CC2)ccc1C1=C(c2ccccc2Cl)CCCc2cc(C(=O)O)ccc21` [IV-71], which GI50 is on record?
A: < 0.05 µM

Q: Which GI50 does the source give for `Cc1sc2c(c1C)C(c1ccc(N3CC4(CC(CN5CCN(c6cc(F)c(C7=C(c8ccccc8F)CCCc8cc(C(=O)O)ccc87)cc6F)CC5)C4)C3)cc1)=N[C@@H](C)c1nnc(C)n1-2` [IV-72] here?
A: < 0.05 µM

test system: MCF7 cells (ECACC #86012803); assay: Cellular growth inhibition assay, MCF7 cells purchased from ECACC; type: cell-based; conditions: Homo sapiens, 144 h; MCF7 cells purchased from ECACC (#86012803); six days treatment; CellTiter-Glo 2.0 viability
Experimental: Exemplary compounds were tested for the ability to inhibit the proliferation of MCF7 cells.
MCF7 cells (ATCC #HTB-22 or ECACC #86012803) were cultured in RPMI 1640 medium supplemented with 10% heat-inactivated fetal bovine serum, 1% pen-strep, and 0.2 U/ml insulin. Cells were seeded in 25 μL of RPMI 1640 medium supplemented with 10% heat-inactivated fetal bovine serum, 1% pen-strep, 0.2 U/ml insulin in poly-D-lysine treated, black clear-bottom 384-well plates at 225 cells/well for MCF7 cells purchased from ECACC or 1,500 cells/well for MCF7 cells purchased from ATCC. Following seeding, plates were spun at 300×g for 30 seconds and cultured at 37° C. with 5% CO2 in a humidified tissue culture incubator.
At 24 hours after seeding, compounds were titrated in 100% DMSO and diluted in RPMI 1640 medium supplemented with 10% heat-inactivate fetal bovine serum, 1% pen-strep, and 0.2 U/ml insulin. A 25 μL aliquot of the compound/media mixture was added to cells, bringing the total volume in each well to 50 μL. An equal volume of DMSO without compound was used as a negative control. After treatment, plates were spun at 300×g for 30 seconds, then cultured at 37° C. with 5% CO2 for six days in a humidified tissue culture incubator.
On Day 6 of treatment, cell viability was quantified with CellTiter-Glo 2.0 reagent (Promega). Plates were equilibrated to room temperature for 30 minutes, then 25 μL of CellTiter-Glo 2.0 reagent was added to cells, bringing the total volume in each well to 75 μL. After reagent was added, plates were mixed on a shaker for two minutes at 500 rpm and then incubated at room temperature for 10 minutes. Following incubation, plates were spun at 3,000×g for 30 seconds, sealed with an optical adhesive cover, and luminescence readings were measured with an EnVision Plate Reader.
Data was normalized to 0 luminescence for baseline. A four-parameter, non-linear regression curve fit was applied to dose-response data in GraphPad Prism data analysis software to determine the half maximal growth inhibitory concentration (GI50) for each compound.

Q: Which GI50 does the source give for `COc1cc(N2CCC(O)(CN3CCN(c4cc(F)c([C@@H]5c6ccc(O)cc6CC[C@@H]5c5ccc(F)cc5)c(F)c4)CC3)CC2)ccc1C1=N[C@@H](C)c2nnc(C)n2-c2sc(C)c(C)c21` [III-358] here?
A: < 0.05 µM

Q: With `COc1cc(N2CCC(O)(CN3CCC(c4cc(F)c([C@H]5c6ccc(O)cc6CC[C@H]5c5ccc(F)cc5)c(F)c4)CC3)CC2)ccc1C1=N[C@@H](C)c2nnc(C)n2-c2sc(C)c(C)c21` [III-359] as the compound, how does the GI50 read?
A: 0.05 to 0.5 µM

Q: For `COc1cc(N2CCN(CC3(O)CCN(c4ccc(C5=N[C@@H](C)c6nnc(C)n6-c6sc(C)c(C)c65)cc4)CC3)CC2)ccc1C1=C(c2ccccc2)CCCc2cc(C(=O)O)ccc21` [IV-66], which GI50 is on record?
A: < 0.05 µM

Q: With `Cc1sc2c(c1C)C(c1ccc(N3CCC(O)(CN4CCN(c5cc(F)c(C6=C(c7ccccc7)CCCc7cc(C(=O)O)ccc76)cc5F)CC4)CC3)cc1)=N[C@@H](C)c1nnc(C)n1-2` [IV-67] as the compound, how does the GI50 read?
A: < 0.05 µM

Q: How did the GI50 turn out when `COc1cc(N2CCN(CC3(O)CCN(c4ccc(C5=N[C@@H](C)c6nnc(C)n6-c6sc(C)c(C)c65)cc4)CC3)CC2)c(F)cc1C1=C(c2ccccc2F)CCCc2cc(C(=O)O)ccc21` [IV-68] was run?
A: < 0.05 µM

Q: Which GI50 does the source give for `Cc1sc2c(c1C)C(c1ccc(N3CCC(O)(CN4CCN(c5cc(F)c(C6=C(c7ccccc7)CCCc7cc(C(=O)O)ccc76)c(F)c5)CC4)CC3)cc1)=N[C@@H](C)c1nnc(C)n1-2` [IV-69] here?
A: < 0.05 µM

Q: Which GI50 does the source give for `Cc1sc2c(c1C)C(c1ccc(N3CC(CN4CCN(CC5CN(c6cc(F)c(C7=C(c8ccccc8)CCCc8cc(C(=O)O)ccc87)cc6F)C5)CC4)C3)cc1)=N[C@@H](C)c1nnc(C)n1-2` [IV-70] here?
A: < 0.05 µM

Q: `COc1cc(C2CCN(CC3CCC4(CC3)CN(c3ccc(C5=N[C@@H](C)c6nnc(C)n6-c6sc(C)c(C)c65)cc3)C4)CC2)ccc1C1=C(c2ccccc2Cl)CCCc2cc(C(=O)O)ccc21` [IV-71] was tested. Which GI50 did it give?
A: < 0.05 µM

Q: With `Cc1sc2c(c1C)C(c1ccc(N3CC4(CC(CN5CCN(c6cc(F)c(C7=C(c8ccccc8F)CCCc8cc(C(=O)O)ccc87)cc6F)CC5)C4)C3)cc1)=N[C@@H](C)c1nnc(C)n1-2` [IV-72] as the compound, how does the GI50 read?
A: < 0.05 µM

test system: T-Rex 293 cells lacking increased expression of estrogen receptor alpha protein; assay: Cellular growth inhibition assay, T-Rex 293 cells, (−) doxycycline; type: cell-based; conditions: T-REx-293, 72 h, Table 7-B; T-Rex 293 cells without doxycycline (lacking increased ERα expression); 72 hours; CellTiter-Glo; read-out: (−) Dox GI50
Procedure, shortened: as §1

Q: With `COc1cc(N2CCC(O)(CN3CCN(c4cc(F)c([C@@H]5c6ccc(O)cc6CC[C@@H]5c5ccc(F)cc5)c(F)c4)CC3)CC2)ccc1C1=N[C@@H](C)c2nnc(C)n2-c2sc(C)c(C)c21` [III-358] as the compound, how does the GI50 read?
A: 0.5 to 2.5 µM

Q: For `COc1cc(N2CCC(O)(CN3CCC(c4cc(F)c([C@H]5c6ccc(O)cc6CC[C@H]5c5ccc(F)cc5)c(F)c4)CC3)CC2)ccc1C1=N[C@@H](C)c2nnc(C)n2-c2sc(C)c(C)c21` [III-359], which GI50 is on record?
A: 0.5 to 2.5 µM

Q: Which GI50 does the source give for `COc1cc(N2CCN(CC3(O)CCN(c4ccc(C5=N[C@@H](C)c6nnc(C)n6-c6sc(C)c(C)c65)cc4)CC3)CC2)ccc1C1=C(c2ccccc2)CCCc2cc(C(=O)O)ccc21` [IV-66] here?
A: 0.5 to 2.5 µM

Q: Which GI50 does the source give for `Cc1sc2c(c1C)C(c1ccc(N3CCC(O)(CN4CCN(c5cc(F)c(C6=C(c7ccccc7)CCCc7cc(C(=O)O)ccc76)cc5F)CC4)CC3)cc1)=N[C@@H](C)c1nnc(C)n1-2` [IV-67] here?
A: 0.5 to 2.5 µM

Q: For `COc1cc(N2CCN(CC3(O)CCN(c4ccc(C5=N[C@@H](C)c6nnc(C)n6-c6sc(C)c(C)c65)cc4)CC3)CC2)c(F)cc1C1=C(c2ccccc2F)CCCc2cc(C(=O)O)ccc21` [IV-68], which GI50 is on record?
A: 0.5 to 2.5 µM

Q: With `Cc1sc2c(c1C)C(c1ccc(N3CCC(O)(CN4CCN(c5cc(F)c(C6=C(c7ccccc7)CCCc7cc(C(=O)O)ccc76)c(F)c5)CC4)CC3)cc1)=N[C@@H](C)c1nnc(C)n1-2` [IV-69] as the compound, how does the GI50 read?
A: 0.5 to 2.5 µM

Q: For `Cc1sc2c(c1C)C(c1ccc(N3CC(CN4CCN(CC5CN(c6cc(F)c(C7=C(c8ccccc8)CCCc8cc(C(=O)O)ccc87)cc6F)C5)CC4)C3)cc1)=N[C@@H](C)c1nnc(C)n1-2` [IV-70], which GI50 is on record?
A: 0.5 to 2.5 µM

Q: `COc1cc(C2CCN(CC3CCC4(CC3)CN(c3ccc(C5=N[C@@H](C)c6nnc(C)n6-c6sc(C)c(C)c65)cc3)C4)CC2)ccc1C1=C(c2ccccc2Cl)CCCc2cc(C(=O)O)ccc21` [IV-71] was tested. Which GI50 did it give?
A: 0.5 to 2.5 µM

Q: Which GI50 does the source give for `Cc1sc2c(c1C)C(c1ccc(N3CC4(CC(CN5CCN(c6cc(F)c(C7=C(c8ccccc8F)CCCc8cc(C(=O)O)ccc87)cc6F)CC5)C4)C3)cc1)=N[C@@H](C)c1nnc(C)n1-2` [IV-72] here?
A: 0.5 to 2.5 µM

target: T1, CDK1 (Homo sapiens, UniProt P06493); assay: Binding affinity to CDK1 (KdELECT assay); conditions: not given
T1 construct: made in house; host or cells: T7 phage in E. coli BL21-derived host, or HEK-293 cells
Experimental: Exemplary compounds were tested for ability to bind to CDK1.
Compounds were tested using a KdELECT assay. Kinase-tagged T7 phage strains were prepared in an E. coli host derived from the BL21 strain. E. coli were grown to log-phase and infected with T7 phage and incubated with shaking at 32° C. until lysis. The lysates were centrifuged and filtered to remove cell debris. The remaining kinases were produced in HEK-293 cells and subsequently tagged with DNA for qPCR detection. Streptavidin-coated magnetic beads were treated with biotinylated small molecule ligands for 30 minutes at room temperature to generate affinity resins for kinase assays. The liganded beads were blocked with excess biotin and washed with blocking buffer (SeaBlock (Pierce), 1% BSA, 0.05% Tween 20, 1 mM DTT) to remove unbound ligand and to reduce non-specific binding. Binding reactions were assembled by combining kinases, liganded affinity beads, and test compounds in 1× binding buffer (20% SeaBlock, 0.17×PBS, 0.05% Tween 20, 6 mM DTT). Test compounds were prepared as 11 IX stocks in 100% DMSO. Kd values were determined using an 11-point 3-fold compound dilution series with three DMSO control points. All compounds for Kd measurements are distributed by acoustic transfer (non-contact dispensing) in 100% DMSO. […] The kinase concentration in the eluates was measured by qPCR.

T1 sequence (P06493 whole entry): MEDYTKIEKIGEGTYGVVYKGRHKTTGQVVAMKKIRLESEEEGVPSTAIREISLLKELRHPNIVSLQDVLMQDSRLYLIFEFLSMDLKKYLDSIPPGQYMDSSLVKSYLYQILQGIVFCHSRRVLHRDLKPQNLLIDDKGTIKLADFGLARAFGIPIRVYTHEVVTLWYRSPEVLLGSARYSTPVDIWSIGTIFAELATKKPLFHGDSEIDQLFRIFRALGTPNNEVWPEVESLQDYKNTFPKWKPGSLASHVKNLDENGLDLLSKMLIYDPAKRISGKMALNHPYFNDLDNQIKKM

Q: With `CCN(CCOCCOCCNS(=O)(=O)c1ccc(Nc2ncc(Br)c(Nc3cccc(F)c3C(N)=O)n2)cc1)CCOc1ccc(C(=O)c2c(-c3ccc(O)cc3)sc3cc(O)ccc23)cc1` [I-40] as the compound, how does the pKd read?
A: 6.30 to 7.30

Q: How did the pKd turn out when `CCN(CCOCCOCCOCCOCCOCCOCCNS(=O)(=O)c1ccc(Nc2ncc(Br)c(Nc3cccc(F)c3C(N)=O)n2)cc1)CCOc1ccc(C(=O)c2c(-c3ccc(O)cc3)sc3cc(O)ccc23)cc1` [I-42] was run?
A: 6.30 to 7.30
